From PubChem BioAssay AID1035470 (Broad Institute, 2014)
Results filed as inconclusive are left out. Calls of active or inactive are those of the source.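 The calls were made as follows: active = compound lowering the normal-ribosome reporter at least twice as much as the humanized-ribosome reporter, growth loss under a set limit; inconclusive = no clear call, values can overlap the other calls; inactive = the rest.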

Tested on: E. coli WT-GFP vs G2058-humanized RFP, fluorescence, 24 h
Assay: E. coli strain growth, wild-type against G2058 humanized RFP mutant – G2058 mutant RFP vs wild-type GFP, cherry-pick, two tests, dose response (AID 1035470)
[1] = measured here: G2058 humanized mutant RFP growth
[2] = E. coli WT-GFP vs G2058-humanized RFP mixed culture, total growth OD600, 24 h

Structure (SMILES) | AC50 | AC50 [1] | AC50 [2]
CCOC(=O)C1(CCCc2ccccc2)CCN(C(=O)CCn2cncn2)CC1 | > 100 µM (inactive) | – | –
Cc1nnc2sc(SCC(=O)Nc3ccc(Br)cc3)nn2c1=O | > 100 µM (inactive) | > 100 µM | –
O=[N+]([O-])c1ccc(N2CCOCC2)c2c1no[n+]2[O-] | – | 0.638 µM | –
O=C(NCc1ccccc1Cl)[C@H]1CCCN1C(=O)[C@H]1CCCN1C(=O)c1cccc2ccccc12 | > 100 µM (inactive) | – | > 100 µM
Cc1ccc(CC2C(=O)N(c3cc(Cl)ccn3)C(=O)C2C)cc1 (stereo not given) | > 100 µM (inactive) | – | –
Cc1cc(OCC(=O)N(Cc2ccco2)C2CCS(=O)(=O)C2)ccc1Cl (stereo not given) | > 100 µM (inactive) | – | > 100 µM
O=C(O)CCn1c(SCc2cccc3ccccc23)nc2ccccc21 | > 100 µM (inactive) | – | > 100 µM
Cc1ccccc1-n1c([C@@H]2C[C@H]2c2ccccc2)n[nH]c1=S | – | – | > 100 µM
COC(=O)c1ccc(OCC(=O)c2ccccc2OC)cc1 | > 100 µM (inactive) | – | > 100 µM
COc1ccc(CC(=O)NC(C)c2ccc3ccccc3c2)cc1 (stereo not given) | – | 5.4 µM | –
CC1CCCCN1CC(O)COCCC12CC3CC(CC(C3)C1)C2 (stereo not given) | > 100 µM (inactive) | – | > 100 µM
CCN(CC)CCn1c(SCC(=O)Nc2cccc(OC)c2)nc2c(sc3ccccc32)c1=O | > 100 µM (inactive) | – | > 100 µM
O=C(Nc1nc2ccccc2n1CCN1CCOCC1)c1ccccc1 | > 100 µM (inactive) | – | –
OCCN(Cc1ccccc1)Cc1ccc(F)c(F)c1 | > 100 µM (inactive) | – | –
CN(C)CCCN(C(=O)CCOc1ccccc1)c1nc2c(F)cccc2s1 | > 100 µM (inactive) | – | –
N#Cc1cccc(-c2ccc3c(c2)[C@H]2[C@H](CCN2C(=O)c2ccccc2F)[C@H](CO)N3)c1 | > 100 µM (inactive) | – | –
COc1ccc(S(=O)(=O)N2CCOc3ccccc32)cc1 | – | > 100 µM | > 100 µM
C[C@@H]1CN([C@@H](C)CO)C(=O)c2cc(NC(=O)Nc3cccc4ccccc34)ccc2O[C@@H](C)CCCCO[C@H]1CN(C)C(=O)CCCN(C)C | > 100 µM (inactive) | – | –
COc1ccc(-c2nc3ccc(Cl)cn3c2Cc2cccc(F)c2)cc1OC | > 100 µM (inactive) | – | –
COC(=O)C[C@H]1C[C@@H]2c3cc(NC(=O)Nc4ccc(C(F)(F)F)cc4)ccc3O[C@@H]2[C@H](CO)O1 | > 100 µM (inactive) | – | –
O=C(Nc1ccc2nc(-c3cccnc3)[nH]c2c1)c1ccco1 | > 100 µM (inactive) | > 100 µM | –
COc1ccc(C(=O)N(c2ccccc2)c2nccc3ccccc23)cc1OC | > 100 µM (inactive) | – | –
Cn1ccc2cc(-c3ccc4ncnc(NCc5cccs5)c4c3)ccc21 | – | – | > 100 µM

Structure (SMILES) | AC50 | AC50 [1] | AC50 [2]
COC(=O)c1ccc(C(=O)Nc2ccc3nc(-c4ccncc4)[nH]c3c2)cc1 | > 100 µM (inactive) | – | > 100 µM
CC(=O)NCCOc1nc(N2CCCCC2)nc(N2CCCCC2)n1 | > 100 µM (inactive) | – | –
O=C(Nc1ccc(F)c(Cl)c1)C1CC2CCC1C2 (stereo not given) | > 100 µM (inactive) | – | –
CN1C(=O)c2cccc3c(S(=O)(=O)NCCc4ccccc4)ccc1c23 | > 100 µM (inactive) | – | > 100 µM
COc1cccc(NC(=O)COC(=O)Cc2ccc(Br)cc2)c1 | > 100 µM (inactive) | – | > 100 µM
CCCC#C/C(CCC)=C1\c2ccccc2C(=O)N1c1ccccc1 | > 100 µM (inactive) | – | > 100 µM
O=C(O)CC(CC(=O)Nc1ccc(Oc2ccccc2)cc1)c1ccccc1 (stereo not given) | > 100 µM (inactive) | – | –
CCc1ccc(OCC(=O)NCc2ccco2)c(Br)c1 | > 100 µM (inactive) | – | –
O=C(CSCc1c(Cl)cccc1Cl)NCc1ccccn1 | > 100 µM (inactive) | – | –
O=C1c2ccccc2C(c2nnnn2Cc2ccccc2)N1Cc1cccc(F)c1 (stereo not given) | – | – | > 100 µM
Cc1ccccc1OCc1nc2ccccc2n1C | > 100 µM (inactive) | – | –
Cc1ccc(OCCCC(=O)NC(C)c2ccccc2)c(C)c1 (stereo not given) | > 100 µM (inactive) | – | –
Fc1cccc(CCN2C(=S)NC[C@@H]2CC2CCCCC2)c1 | > 100 µM (inactive) | – | –
O=C(Nc1cccnc1)c1ccc([N+](=O)[O-])o1 | > 100 µM (inactive) | – | > 100 µM
Cc1ncoc1C(=O)NCCC(c1ccccc1)c1ccccc1 | > 100 µM (inactive) | – | –
O=S1(=O)c2ccc(Br)cc2OCCC2CCCCN21 (stereo not given) | > 100 µM (inactive) | – | > 100 µM
O=S(=O)(NC1c2cccc3cccc(c23)C1Sc1ncccn1)c1ccccc1 (stereo not given) | > 100 µM (inactive) | – | 3.21 µM
O=c1[nH]c2cc([N+](=O)[O-])ccc2c2ccccc12 | > 100 µM (inactive) | > 100 µM | > 100 µM
Nc1[nH]c(C(=O)c2ccccc2)c(-c2ccc(Br)cc2)c1C(=O)c1cccs1 | > 100 µM (inactive) | – | > 100 µM
CCOC(=O)C1NN=C(C(=O)c2ccccc2)C1c1ccc(OC)cc1 (stereo not given) | – | – | > 100 µM
Cc1cccc(NC(=O)c2c(C)nn(-c3ccccc3)c2Cl)c1 | – | – | > 100 µM
COc1cccc(C(=O)Nc2nnc(S(=O)(=O)N(C)Cc3ccccc3)s2)c1 | > 100 µM (inactive) | – | > 100 µM
CCOc1ccccc1NC(=O)c1cc(SC)ccc1Cl | > 100 µM (inactive) | – | > 100 µM

Structure (SMILES) | AC50 | AC50 [1] | AC50 [2]
CCOc1ccccc1C(=O)OCC(=O)NCCc1ccc(OC)cc1 | > 100 µM (inactive) | – | 50.9 µM
NC(=O)c1ccsc1NC(=O)COC(=O)Cc1ccc(F)cc1 | > 100 µM (inactive) | > 100 µM | –
O=C(CSCc1cnn(-c2ccccc2)c1-n1cccc1)NCc1cccnc1 | – | – | > 100 µM
O=C(COC(=O)C1CC1)Nc1nc(-c2ccc(F)c(F)c2)cs1 | – | – | > 100 µM
CCOc1ccc(C(C)=O)cc1CN1C(=O)NC2(CCCCCCC2)C1=O | > 100 µM (inactive) | – | > 100 µM
CC(=O)N1CCN(c2nc(-c3cccs3)nc3ccccc23)CC1 | > 100 µM (inactive) | – | –
COc1cccc(SCC(=O)N2CCN(c3ccccc3)CC2)c1 | – | – | > 100 µM
COc1ccc(C(CC(=O)c2ccc(O)cc2)S(=O)(=O)c2ccc(C)cc2)cc1 (stereo not given) | > 100 µM (inactive) | – | –
N#CCC(=O)Nc1ccc(C(=O)OCC(=O)Nc2ccc3ccccc3c2)cc1 | > 100 µM (inactive) | – | –
Cc1ccc(C(=O)Nc2ccc3ncccc3c2)cc1 | > 100 µM (inactive) | – | –
O=C1OCCC1Sc1nc2ccccc2c(=O)n1Cc1ccccc1 (stereo not given) | > 100 µM (inactive) | – | –
Cc1cccc(-c2ccc([C@H]3[C@@H](CO)N4CCCCN(S(=O)(=O)c5ccccc5C)C[C@H]34)cc2)c1 | – | – | > 100 µM
O=C(Nc1cccc(S(=O)(=O)c2cccc(NC(=O)C3CC3)c2)c1)C1CC1 | – | – | > 100 µM
Cc1nc(C)c(-c2ccn(S(=O)(=O)c3ccc(Cl)cc3)n2)o1 | > 100 µM (inactive) | – | –
O=C1c2cccc3cccc(c23)C(=O)N1c1ccccc1Cl | > 100 µM (inactive) | – | –
COc1ccccc1NC(=O)COC(=O)Cc1c[nH]c2ccccc12 | – | > 100 µM | –
CSc1nc2ccc(NS(=O)(=O)c3ccc([N+](=O)[O-])cc3)cc2s1 | > 100 µM (inactive) | > 100 µM | > 100 µM
O=C(NCc1ccc2c(c1)OCO2)c1sccc1Br | > 100 µM (inactive) | – | > 100 µM
O=C(CCc1ccccc1)Nc1sc2c(c1C(=O)O)CCCC2 | > 100 µM (inactive) | – | –
Nc1c(C(=O)NCCN2CCOCC2)c2nc3ccccc3nc2n1Cc1ccccc1 | > 100 µM (inactive) | – | –
CCn1c(SCC(=O)Nc2ccc(OC)cc2)nc2nc3c(cc2c1=O)CCCC3 | – | – | 47.7 µM
O=c1[nH]c(C2CCCN(S(=O)(=O)c3ccccc3Cl)C2)nc2c1nnn2Cc1ccc2c(c1)OCCO2 (stereo not given) | > 100 µM (inactive) | – | –
COc1ccc(Oc2ccc(C(F)(F)F)cc2NC(=O)CC(CC(=O)O)c2ccccc2)cc1 (stereo not given) | > 100 µM (inactive) | – | > 100 µM

Structure (SMILES) | AC50 | AC50 [1] | AC50 [2]
O=C(O)CC1(CC(=O)Nc2ccc3sccc3c2)CCCCC1 | > 100 µM (inactive) | – | –
CCC(=O)Nc1nc2c(OC)ccc(OC)c2s1 | > 100 µM (inactive) | – | –
CC(C)(C)S(=O)(=O)Cc1nc(-c2ccc(Cl)c(Cl)c2)cs1 | – | 38.5 µM | –
COc1cccc(S(=O)(=O)N2CCCCN3[C@H](CO)[C@H](c4ccc(C#CC(C)C)cc4)[C@@H]3C2)c1 | > 100 µM (inactive) | – | > 100 µM
CN(CCOc1ccccc1)C(=O)c1ccc(OC2CCN(C(=O)C3CC3)CC2)cc1 | > 100 µM (inactive) | – | > 100 µM
COc1cc(OC)c(NS(=O)(=O)c2cccc(C(=O)OCC(=O)NCC3CCCO3)c2)cc1Cl (stereo not given) | – | – | > 100 µM
Cc1cccc(-c2ccc([C@@H]3[C@@H](CO)N4CCCCN(S(=O)(=O)c5ccccc5C)C[C@H]34)cc2)c1 | – | – | > 100 µM
CN(C)S(=O)(=O)N1CCN(c2ccccc2Cl)CC1 | > 100 µM (inactive) | – | > 100 µM
CCc1cc2cc(OC)ccc2nc1SCC(=O)Nc1cc(OC)c(OC)cc1C(=O)O | > 100 µM (inactive) | – | > 100 µM
C=CCn1c(C)cc(C(=O)CSc2nnc(C3CC3)n2C2CC2)c1C | – | 48.6 µM | –
c1ccc(Nc2ccc3ccccc3c2)cc1 | > 100 µM | > 100 µM | –
C[C@H](CO)N1C[C@H](C)[C@H](CN(C)C(=O)Nc2ccc3c(c2)OCO3)Oc2c(NC(=O)Nc3ccccc3)cccc2C1=O | > 100 µM (inactive) | – | –
C[C@@H]1CN([C@@H](C)CO)C(=O)c2cccc(NC(=O)c3nc4ccccc4s3)c2O[C@@H]1CN(C)CC1CC1 | – | – | > 100 µM
CC(=O)c1ccc(OCC(=O)Nc2ccc3c(c2)CCC3)cc1 | > 100 µM (inactive) | – | > 100 µM
COc1ccc(OC)c(-c2nn(-c3ccccc3)cc2C(=O)N2CCc3ccccc3C2)c1 | – | – | > 100 µM
OC(COc1ccc(Cl)cc1)CN1CCN(c2ccccn2)CC1 (stereo not given) | > 100 µM (inactive) | – | –
CCN(CC)S(=O)(=O)c1cc(NC(=O)C(C)N2CCN(Cc3ccc4c(c3)OCO4)CC2)ccc1C (stereo not given) | > 100 µM (inactive) | > 100 µM | –
CN1OC[C@@H]2CN(C(=O)c3ccco3)[C@H](c3ccc(-c4ccc(C#N)cc4)cc3)C[C@@H]21 | > 100 µM (inactive) | – | > 100 µM
Cc1cccc(-c2ccc([C@@H]3[C@@H](CO)N4CCCCN(S(=O)(=O)c5ccccc5C)C[C@@H]34)cc2)c1 | – | – | > 100 µM
CCC1CCCCN1C(=O)CSc1nnc(-c2cccc(Cl)c2)o1 (stereo not given) | – | – | > 100 µM
